Reference: patent US8883763B2 (Universite Joseph Fourier, priority 2010, dated 2014)

What was measured:
HMEC cells = assay: Proliferation of HMEC cells (GI50); type: cell-based; conditions: Homo sapiens, 120 h, 50 μM to 1 nM for 5 days
Description: The HMECs were seeded at 10% confluence and incubated with the molecules at different concentrations (from 50 μM to 1 nM) for 5 days. The GI50 (50% Growth Inhibition) defines the concentration inducing a 50% reduction in proliferation with respect to the control.

HeLa cells = assay: Indirect immunofluorescence: effect on HeLa cells (mitotic arrest, microtubule depolymerization); type: cell-based, human; design: key to Effect on Hela at 25 μM / Effect on Hela at 100 μM / Effect on Hela at 50 and 100 μM / Effect on Hela at 50 μM: —: −: no activity on the cells at 25 μM (if there is an effect at high concentrations, this is specified in the table).; *: weak activity (MA and/or slight depolymerization of the MTs and/or slight inhibition of proliferation),; **: average activity (MA and/or moderate depolymerization of the MTs and/or moderate inhibition of proliferation),; ***: strong activity (MA and/or pronounced depolymerization of the MTs and/or pronounced inhibition of proliferation),; ****: very strong activity (MA and/or very pronounced depolymerization of the MTs and/or strong inhibition of proliferation); conditions: 24 hours; for Effect on Hela at 25 μM: mitotic index and/or depolymerization of the MTs
Description: The cells were cultured on slides in 24-well plates and incubated for 24 hours with molecule 6 at different concentrations from 1 to 10 μM.
Corresponding quantities of DMSO were added to the culture medium in the control wells.
The cells were fixed in a solution of PBS with 4% paraformaldehyde (PFA) and 0.1% glutaraldehyde (GA), for 15 minutes and centrifuged at 300 g for the last 10 minutes of the fixing. The slides were rinsed in PBS and the free aldehyde groups were reduced by two successive 5-minute incubations in PBS containing 1 mg/ml of NaBH4.
After one washing with PBS then another with PBST (PBS with 0.5% triton-X-100), the cells are incubated for 30 minutes at ambient temperature with anti α-tubulin monoclonal antibody solution (DM1A clone, Sigma # T6199) diluted to 1:200 in PBST. After 3 10-minute washings with PBST, the cells are incubated for 30 minutes at ambient temperature in a solution of goat anti-mouse polyclonal antibodies coupled with Alexa 488 (1:1000, Molecular Probes # A-11029) and phalloidin coupled with Texas red to label the actin (1:2000, Molecular Probes # T7471), in PBST also containing Hoechst 33258 (1 μg/ml) for labelling the DNA. After 3 10-minute washings in PBST, the slides are mounted on plates in Fluorsave™ mounting medium (Calbiochem #345789) and are observed and analyzed using an Axiovert 200M inverted fluorescence microscope (Zeiss®). The images are produced with a Plan-Apochromat 63× oil objective (Zeiss®) by means of a Coolsnap HQ camera (Roper Scientifics®) and with Metamorph acquisition software (Universal Imaging™ Corporation).
In order to evaluate the effect of the analogues of compound 6 on PHFs and HeLa cells, the immunofluorescence technique described above was used and adapted to a 96-well dish format. The cells were seeded in glass-bottomed 96-well dishes and incubated for 24 hours in the presence of different concentrations of molecules from 100 μM to 50 nM. And in the same way as described above, the cells were fixed and immunolabelled. Analysis of the phenotypes as well as counting the mitotic cells were carried out with the same microscope but using a ×40 objective (Olympus). The molecules were compared with each other with respect to the mitotic arrest induced on PHFs and HeLa cells at 25 and 0.3 μM.
The mitotic index and/or the depolymerization of the MTs were evaluated at 25 μM.

PP1α (PP1CA) = target: T1, PP1α (PP1CA) (Oryctolagus cuniculus, UniProt P62139); assay: Protein phosphatase test (PP1 activity, DiFMUP fluorescent substrate); type: biochemical; conditions: for IC50: PP1CA at 80 mU, fluorescent substrate (50 μM), molecules from 50 μM to 50 nM, read-out: PP1 Inhibition IC50
T1 construct: purchased New England Biolabs P0754
T1 sequence (P62139 whole entry): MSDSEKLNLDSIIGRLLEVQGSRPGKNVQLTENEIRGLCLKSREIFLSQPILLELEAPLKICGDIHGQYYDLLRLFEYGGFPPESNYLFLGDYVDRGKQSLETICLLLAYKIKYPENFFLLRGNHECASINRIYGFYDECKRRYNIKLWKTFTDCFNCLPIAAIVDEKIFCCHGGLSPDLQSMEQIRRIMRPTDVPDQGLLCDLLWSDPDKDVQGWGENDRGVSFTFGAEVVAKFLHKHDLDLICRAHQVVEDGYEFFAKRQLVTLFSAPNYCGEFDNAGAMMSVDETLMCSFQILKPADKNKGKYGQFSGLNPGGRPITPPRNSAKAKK
Description: FIG. 13 presents the graph showing the inhibition of the PP1Cα activity by compound 6 in vitro. PP1Cα (New England Biolabs, 30 mU/well) was incubated in the presence of compound 6 at different concentrations and a fluorescent substrate, diFMUP.
Determination of the 1050 was carried out with PP1CA at 80 mU in the presence of a fluorescent substrate
(50 μM) and different concentrations of molecules from 50 μM to 50 nM.
For the activity tests, PP1α (New England Biolabs # P0754) was used at a final concentration of 30 mU or 80 mU for the screening of all the analogues. 6,8-difluoro-4-methylumbelliferyl phosphate (DiFMUP, Invitrogen # D6567) was used as fluorescent substrate at a concentration of […]. All the tests were carried out in a final volume of 100 μl, at 37° C. in 96-microwell plates (Greiner #655096).
Compound 6, combretastatin A4 (CA-4) as well as all the analogues were diluted in 50 μl of PP1 buffer (100 mM Tris-HCl, pH 7.5, 4 mM DTT, 0.2 mM EDTA, 0.5 mM MnCl2) from 50 μM to 50 nM. Corresponding quantities of DMSO were added to control wells. PP1α (30 or 80 mU in 30 μl of PP1 buffer) was added to each well. After incubating for 15 minutes at AT, the substrate was added (in 20 μl of PP1 buffer). After incubating for 20 minutes at 37° C., the fluorescence was measured in a plate fluorometer at 355-460 nm in order to assay the phosphatase activity. The test was carried out three times in duplicate for each condition.

bovine brain tubulin = assay: In vitro tubulin polymerization test (turbidimetry at 350 nm); type: biochemical; conditions: molecules at 50 μM, calculated at t=3000 s, DMSO control = 100%
Description: Tubulin was purified from bovine brain using the polymerization-depolymerization process described by (Castoldi M and Popov A V. Protein Expr Purif. 2003, 32(1): pp 83-8).
The in vitro tubulin polymerization tests (at 50 μM) were carried out in the presence of GTP 1 mM in BRB80 buffer (80 mM K-PIPES pH 6.8, 1 mM MgCl2, 1 mM EGTA) at 37° C. The tests were carried out in 96-microwell plates (half-wells) (Costar plates, Corning #3695), in triplicate with a final volume of 70 μl. Tubulin assembly was carried out in the presence of compound 6 or its analogues (all used at a concentration of 50 μM) and was monitored by turbidimetry measurement at 350 nm using a spectrophotometer (Spectramax More, Molecular Devices).
Measurement of the effect of a molecule on polymerization was calculated at t=3000 s taking the value of the control at the same time as being equal to 100%.

Row | SMILES | IC50 (PP1α (PP1CA)) [µM] | GI50 (HMEC cells) [µM] | Effect on Hela at 25 μM (HeLa cells) | Tubulin polymerization inhibition (bovine brain tubulin) | Effect on Hela at 50 and 100 μM (HeLa cells; 50 and 100 μM) | Effect on Hela at 100 μM (HeLa cells; 100 μM) | Effect on Hela at 50 μM (HeLa cells; 50 μM) | inhibition of PP1Cα activity in vitro (PP1α (PP1CA); PP1Cα 30 mU/well, diFMUP, negative control)
1 | COc1ccc(-c2[nH]c(=O)c3ccccc3c2N)cc1 [Compound 8] | > 50 | > 50 | — | — ((−) signifies that the molecule induces little or no tubulin assembly inhibition in vitro: 0+ or − −5% of the DMSO control.) |  |  |  | 
2 | COc1ccc2c(N)c(-c3ccccc3)[nH]c(=O)c2c1 [Compound 10] | > 50 | > 50 | — | + ((+) signifies that the molecule induces tubulin assembly inhibition in vitro comprised between 6 and 25% of the DMSO control.) | * |  |  | 
3 | COc1ccc(-c2[nH]c(=O)c3cc(OC)ccc3c2N)cc1 [Compound 1, 4-amino-7-methoxy-3-(4-methoxyphenyl)isoquinolin-1(2H)-one] | > 50 | 1 to 25 | *** | — ((−) signifies that the molecule induces little or no tubulin assembly inhibition in vitro: 0+ or − −5% of the DMSO control.) |  |  |  | 
4 | COc1ccc(-c2c([N+](=O)[O-])c3ccc(OC)cc3c(=O)n2N)cc1 [Compound 62, 2-Amino-7-methoxy-3-(4-methoxyphenyl)-4-nitroisoquinoline-1(2H)-one] | > 50 | 1 to 25 | *** | — ((−) signifies that the molecule induces little or no tubulin assembly inhibition in vitro: 0+ or − −5% of the DMSO control.) |  |  |  | 
5 | COc1ccc(-c2[nH]c(=O)c3cc(OC)ccc3c2-c2ccc(OC)cc2)cc1 [Compound 5] | > 50 | 0.1 to 1 | *** | +++ ((+++) signifies that the molecule induces tubulin assembly inhibition in vitro of more than 50% with respect to the DMSO control.) |  |  |  | 
6 | COc1ccc(-c2cc3ccc(OC)cc3c(=O)n2N)cc1 [Compound 61, 2-Amino-7-methoxy-3-(4-methoxyphenyl)isoquinoline-1(2H)-one] | > 50 | > 50 | — | — ((−) signifies that the molecule induces little or no tubulin assembly inhibition in vitro: 0+ or − −5% of the DMSO control.) |  |  |  | 
7 | COc1ccc(/C=C\c2cc(OC)c(OC)c(OC)c2)cc1O [combretastatin A-4, reference compound] |  |  |  |  |  |  |  | does not inhibit PP1 activity
8 | COc1ccc(-c2[nH]c(=O)c3ccccc3c2[N+](=O)[O-])cc1 [Compound 7] | > 50 | 1 to 25 | *** | + ((+) signifies that the molecule induces tubulin assembly inhibition in vitro comprised between 6 and 25% of the DMSO control.) |  |  |  | 
9 | COc1ccc(-c2[nH]c(=O)c3cc(OC)ccc3c2NCCOCCO)cc1 [Compound 50, 4-(2-(2-hydroxyethoxy)ethylamino)-7-methoxy-3-(4-methoxyphenyl)isoquinolin-1(2H)-one] | > 50 | 25 to 50 | — | +++ ((+++) signifies that the molecule induces tubulin assembly inhibition in vitro of more than 50% with respect to the DMSO control.) |  |  |  | 
10 | Nc1c(-c2ccccc2)[nH]c(=O)c2ccccc12 [Compound 2] | > 50 | 25 to 50 | — | — ((−) signifies that the molecule induces little or no tubulin assembly inhibition in vitro: 0+ or − −5% of the DMSO control.) |  |  |  | 

Now from value to molecule, other results behind:

Row | IC50 (PP1α (PP1CA)) [µM] | SMILES | GI50 (HMEC cells) [µM] | Effect on Hela at 25 μM (HeLa cells) | Tubulin polymerization inhibition (bovine brain tubulin) | Effect on Hela at 50 and 100 μM (HeLa cells; 50 and 100 μM) | Effect on Hela at 100 μM (HeLa cells; 100 μM) | Effect on Hela at 50 μM (HeLa cells; 50 μM) | inhibition of PP1Cα activity in vitro (PP1α (PP1CA); PP1Cα 30 mU/well, diFMUP, negative control)
11 | ≤ 9 | COc1ccc(-c2c([N+](=O)[O-])c3ccc(OC)cc3c(=O)n2C)cc1 [Compound 66, 7-Methoxy-3-(4-methoxyphenyl)-2-methyl-4-nitroisoquinoline-1(2H)-one] | 1 to 25 | * | + ((+) signifies that the molecule induces tubulin assembly inhibition in vitro comprised between 6 and 25% of the DMSO control.) |  |  |  | 
12 | 10 to 24 | O=c1[nH]c(-c2ccc(O)cc2)c(Cl)c2ccc(O)cc12 [Compound 56, 4-Chloro-7-hydroxy-3-(4-hydroxyphenyl)isoquinoline-1(2H)-one] | > 50 | — | — ((−) signifies that the molecule induces little or no tubulin assembly inhibition in vitro: 0+ or − −5% of the DMSO control.) |  | * |  | 
13 | 10 to 24 | O=c1c2ccccc2cc(-c2ccccc2)n1Cc1ccc(O)cc1 [Compound 74, 2-(p-hydroxybenzyl)-3penylisoquinolin-1(2H)-one] | 25 to 50 | — |  |  |  | * | 
14 | 25 to 50 | COc1ccc(COc2nc(-c3ccc(OC)cc3)c(I)c3ccc(OC)cc23)cc1 [Compound 69, 4-Iodo-7-methoxy-1-(4-methoxybenzyloxy)-3-(4-methoxyphenyl)isoquinoline] | 25 to 50 | — | + ((+) signifies that the molecule induces tubulin assembly inhibition in vitro comprised between 6 and 25% of the DMSO control.) |  |  |  | 
15 | ≤ 9 | COc1ccc2c([N+](=O)[O-])c(-c3ccc(C#CC(C)(C)C)cc3)[nH]c(=O)c2c1 [Compound 60, 3-(4-(3,3-dimethylbut-1-ynyl)phenyl)-7-methoxy-4-nitroisoquinolin-1(2H)-one] | 1 to 25 | *** | — ((−) signifies that the molecule induces little or no tubulin assembly inhibition in vitro: 0+ or − −5% of the DMSO control.) |  |  |  | 
